Test results taken from the supplement of paper PMC10307832.

Columns and labels:
Assay in all cases: relative viability (nuclei count vs DMSO), 5 days (fraction); higher = more cells survive
Cediranib + OSI-027 = compound: COc1cc2c(Oc3ccc4[nH]c(C)cc4c3F)ncnc2cc1OCCCN1CCCC1 [Cediranib] + COc1cccc2cc(-c3nc([C@H]4CC[C@H](C(=O)O)CC4)n4ncnc(N)c34)[nH]c12 [OSI-027] (partner 0.5 µM)
In short: (§1)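 Lung cancer cell lines, seeded in 1536-well plates, were treated the following day by pin tool with a single drug or with five library-drug doses (not always all listed) in √10 steps on top of a fixed anchor-drug dose. Cells were fixed and nuclei stained in one step after 5 days, and nuclei were counted. Relative viability is the nuclei count for treated wells divided by that for vehicle wells, reported as medians of duplicate plates.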

Decitabine + Pemetrexed = compound: Nc1ncn([C@H]2C[C@H](O)[C@@H](CO)O2)c(=O)n1 [Decitabine] + Nc1nc2[nH]cc(CCc3ccc(C(=O)N[C@@H](CCC(=O)O)C(=O)O)cc3)c2c(=O)[nH]1 [Pemetrexed] (partner 0.2 µM)
In short: as §1

Cediranib + Decitabine = compound: COc1cc2c(Oc3ccc4[nH]c(C)cc4c3F)ncnc2cc1OCCCN1CCCC1 [Cediranib] + Nc1ncn([C@H]2C[C@H](O)[C@@H](CO)O2)c(=O)n1 [Decitabine] (partner 2 µM)
In short: as §1

Halofuginone + Lapatinib = compound: O=C(C[C@H]1NCCC[C@@H]1O)Cn1cnc2cc(Br)c(Cl)cc2c1=O (racemic) [Halofuginone] + CS(=O)(=O)CCNCc1ccc(-c2ccc3ncnc(Nc4ccc(OCc5cccc(F)c5)c(Cl)c4)c3c2)o1 [Lapatinib] (partner 2 µM)
In short: as §1

Cell Line	relative viability (Cediranib + OSI-027; first compound 0.04 µM)	relative viability (Cediranib + OSI-027; first compound 0.1265 µM)	relative viability (Cediranib + OSI-027; first compound 0.4 µM)	relative viability (Cediranib + OSI-027; first compound 1.265 µM)	relative viability (Cediranib + OSI-027; first compound 4 µM)	relative viability (Decitabine + Pemetrexed; first compound 0.04 µM)	relative viability (Decitabine + Pemetrexed; first compound 0.1265 µM)	relative viability (Decitabine + Pemetrexed; first compound 0.4 µM)	relative viability (Decitabine + Pemetrexed; first compound 1.265 µM)	relative viability (Decitabine + Pemetrexed; first compound 4 µM)	relative viability (Cediranib + Decitabine; first compound 0.04 µM)	relative viability (Cediranib + Decitabine; first compound 0.1265 µM)	relative viability (Cediranib + Decitabine; first compound 0.4 µM)	relative viability (Cediranib + Decitabine; first compound 1.265 µM)	relative viability (Cediranib + Decitabine; first compound 4 µM)	relative viability (Halofuginone + Lapatinib; first compound 0.001 µM)	relative viability (Halofuginone + Lapatinib; first compound 0.003162 µM)	relative viability (Halofuginone + Lapatinib; first compound 0.01 µM)	relative viability (Halofuginone + Lapatinib; first compound 0.03162 µM)	relative viability (Halofuginone + Lapatinib; first compound 0.1 µM)
NCI-H2126	0.649	0.577	0.668	0.597	0.537	0.68	0.648	0.391	0.453	0.341	0.589	0.573	0.58	0.561	0.602	0.798	0.732	0.773	0.743	0.683
EPLC-272H	0.288		0.287		0.232	0.346	0.256		0.339	0.27	0.352		0.338	0.406	0.354	0.891	0.851	0.976	0.958	0.907
NCI-H1975	0.691	0.773	0.686	0.638	0.801	0.247	0.205	0.182	0.209	0.188	0.638	0.432	0.403	0.351	0.42	0.881	0.873	0.766	0.692	0.385
NCI-H3122	1.09		0.897	0.888	0.975	0.182	0.179	0.121	0.159	0.185	0.558		0.421	0.417	0.477	1.02	1.05	0.975	0.987	1.04
COR-L 105	0.6	0.904	0.553	0.552	0.601	1.01	1.08	0.882	0.698	0.668	0.65	0.676	0.629	0.601	0.729	0.438	0.39	0.317	0.374	0.285
BEN	0.308		0.28	0.311	0.286	0.775	0.757	0.632	0.663	0.553	0.732	0.431	0.74	0.509	0.722	0.782	0.881	0.861	0.588	0.443
NCI-H1915	0.559	0.516	0.566	0.624	0.669	0.274	0.225	0.222	0.191	0.176	0.259	0.248	0.259	0.26	0.28	0.977	0.983	0.942	0.96	0.984
NCI-H650	0.485	0.521	0.508	0.499	0.542	0.686	0.588	0.382	0.273	0.266	0.315	0.271	0.302	0.302	0.348	1.12	0.48	1	0.775	0.515
NCI-H1650	0.781	0.596	0.589	0.577	0.436	0.325	0.311	0.27	0.25	0.25	0.408	0.482	0.354	0.496	0.385	0.594	0.787	0.677	0.704	0.194
NCI-H2009	0.548	0.538	0.658	0.518	0.639	0.902	0.727	0.439	0.357	0.341	0.4	0.366	0.369	0.333	0.417	1.06	1.01	0.887	0.83	0.409
COR-L23	0.913	0.767	0.738	0.675	0.872	0.198	0.207	0.18	0.178	0.196	0.528	0.44	0.402	0.332	0.484	0.924	1.06	0.95	1.01	0.379
NCI-H460	0.852	0.684	0.573	0.605	0.613	0.0582	0.0551	0.0502	0.0449	0.0449	0.505	0.47	0.485	0.479	0.587	0.948	1.27	0.967	0.573	0.11
HCC-827	0.751		0.737	0.74	0.671	0.161	0.585	0.198	0.202	0.219	0.314	0.23	0.358	0.297	0.311	0.192	0.189	0.236	0.233	0.202
NCI-H322M	0.541	0.567	0.535	0.52	0.538	0.549	0.602	0.534	0.709	0.53	0.606	0.837	0.715	0.688	0.654	0.47	0.583	0.585	0.607	0.493
NCI-H1666	0.9	0.809	0.891	0.802	0.805	0.874	0.79	0.712	0.641	0.504	0.738	0.624	0.728	0.87	0.727	0.685	0.826	0.626	0.67	0.458
NCI-H1793	0.271	0.276	0.245		0.301	0.692	0.875	0.511	0.44	0.303	0.51	0.477	0.478	0.478	0.506	0.775	0.832	0.707	0.811	0.589
NCI-H1437	0.841	0.992	0.796	0.851	1.02	0.318	0.276	0.295	0.235	0.214	0.67	0.602	0.621	0.562	0.639	0.835	0.91	0.721	0.755	0.465

Cell Line	relative viability (Cediranib + OSI-027; first compound 0.04 µM)	relative viability (Cediranib + OSI-027; first compound 0.1265 µM)	relative viability (Cediranib + OSI-027; first compound 0.4 µM)	relative viability (Cediranib + OSI-027; first compound 1.265 µM)	relative viability (Cediranib + OSI-027; first compound 4 µM)	relative viability (Decitabine + Pemetrexed; first compound 0.04 µM)	relative viability (Decitabine + Pemetrexed; first compound 0.1265 µM)	relative viability (Decitabine + Pemetrexed; first compound 0.4 µM)	relative viability (Decitabine + Pemetrexed; first compound 1.265 µM)	relative viability (Decitabine + Pemetrexed; first compound 4 µM)	relative viability (Cediranib + Decitabine; first compound 0.04 µM)	relative viability (Cediranib + Decitabine; first compound 0.1265 µM)	relative viability (Cediranib + Decitabine; first compound 0.4 µM)	relative viability (Cediranib + Decitabine; first compound 1.265 µM)	relative viability (Cediranib + Decitabine; first compound 4 µM)	relative viability (Halofuginone + Lapatinib; first compound 0.001 µM)	relative viability (Halofuginone + Lapatinib; first compound 0.003162 µM)	relative viability (Halofuginone + Lapatinib; first compound 0.01 µM)	relative viability (Halofuginone + Lapatinib; first compound 0.03162 µM)	relative viability (Halofuginone + Lapatinib; first compound 0.1 µM)
NCI-H358	0.812	0.967	0.683	0.609	0.845	0.152	0.168	0.129	0.131	0.161	0.214	0.256	0.215	0.186	0.213	0.56	0.432	0.376	0.282	0.232
NCI-H1792	0.731	0.732	0.661	0.76	0.757	0.715	0.894	0.587	0.309	0.255		0.503	0.48	0.501	0.715	0.897	0.857	0.896	0.831	0.994
NCI-H1355	0.38	0.363	0.387	0.34	0.449	0.701	0.513	0.38	0.323	0.314	0.331	0.359	0.353	0.367	0.429	1.03	1.03	0.972	0.984	0.891
SK-LU-1	0.343	0.39	0.338	0.257	0.33	0.826	0.754	0.406	0.513	0.49	0.657	0.638	0.636	0.613	0.73	0.945	1.04	0.806	0.787	0.505
NCI-H2170	0.619	0.529	0.691	0.611	0.786	0.276	0.221	0.227	0.217	0.21	0.522		0.473	0.481	0.515	0.279	0.296	0.259	0.291	0.249
NCI-H2347	0.376	0.448	0.371	0.407	0.425	0.401	0.396	0.382	0.366	0.386	0.671	0.703	0.617	0.659	0.568	1	0.853	0.906	0.918	0.65
A-427	0.515		0.339	0.361	0.405	0.847	0.779	0.466	0.474	0.474	0.566		0.537	0.537	0.66	1.08	0.977	1.01	1.07	1.07
HCC-366	0.933	0.877	0.841	0.84	1.07	0.16	0.115	0.0833	0.0595	0.0583	0.379	0.318	0.305	0.364	0.338	1.05	1.17	0.979	1.08	0.542
HCC-78	0.356	0.448	0.376	0.311	0.356	0.902	1.18	0.874	0.825	0.864	0.74	0.64	0.747	0.605	0.771	0.931	0.698	0.707	0.903	0.137
PC-14	0.993	0.894	0.735	0.61	0.724	0.123	0.0812	0.0659	0.0902	0.0856	0.209	0.245	0.241	0.309	0.264	0.325	0.311	0.343	0.419	0.313
NCI-H2087	0.558	0.742	0.526	0.425	0.763	0.573	0.49	0.451	0.291	0.267	0.22	0.35	0.308	0.328	0.276	1.05	1.29	1.21	0.959	1.19
HOP-62	0.78	0.813	0.771	0.677	0.791	0.283	0.31	0.205	0.186	0.183	0.255	0.246	0.215	0.207	0.203	0.983	1.09	0.936	0.791	0.948
EKVX	0.759	0.809	0.681	0.684	0.723	0.281	0.369	0.255	0.205	0.194	0.332	0.342	0.341		0.392	0.22	0.213	0.183	0.203	0.202
EMC-BAC-2	0.377	0.503	0.38	0.319	0.367		0.407	0.412	0.36	0.354	0.953		0.989	0.918	1.04	0.952	0.888	0.86	0.89	0.807
HARA	0.367		0.446	0.353	0.657	0.2	0.247	0.209	0.202	0.211	0.595	0.593	0.517	0.782	0.582	0.705	0.637	0.721	0.667	0.555
LU99A	0.281	0.314	0.305	0.286	0.288	0.149	0.157	0.182	0.202	0.167	0.936		0.844	0.863	0.936	0.985	0.965	0.892	0.934	0.607
